Data as given in patent US11117915B2, “Antibacterial aminoglycoside analogs” (Cipla USA, Inc., priority 2007, dated 2021).
Converted amounts (≈) assume the structure as drawn. Read-outs that look alike come from different tables or passages of the source.

Assays:
P. aeruginosa ATCC 27853 = assay: MIC assay, CLSI broth microdilution, P. aeruginosa ATCC 27853 (APAE001); format: cell-based; details: Pseudomonas aeruginosa, read-out: MIC APAE001
Procedure: (§1) Minimum inhibitory concentrations (MIC) were determined by reference Clinical and Laboratory Standards Institute (CLSI) broth microdilution methods per M7-A7 [2006]. Quality control ranges utilizing E. coli ATCC 25922, P. aeruginosa ATCC 27853 and S. aureus ATCC 29213, and interpretive criteria for comparator agents were as published in CLSI M100-S17 [2007]. Briefly, serial two-fold dilutions of the test compounds were prepared at 2× concentration in Mueller Hinton Broth. The compound dilutions were mixed in 96-well assay plates in a 1:1 ratio with bacterial inoculum. The inoculum was prepared by suspension of a colony from an agar plate that was prepared the previous day. Bacteria were suspended in sterile saline and added to each assay plate to obtain a final concentration of 5×10^5 CFU/mL. The plates were incubated at 35° C. for 20 hours in ambient air.

E. coli ATCC 25922 = assay: MIC assay, CLSI broth microdilution, E. coli ATCC 25922 (AECO001); format: cell-based; details: for MIC: Escherichia coli, read-out: MIC AECO001; for MIC AECO001: Table 3, E. coli ATCC25922
Procedure: as §1
These MIC assays were conducted following the same protocol as set forth in Example 110. As shown, substituted sisomicin derivatives with groups other than methyl at the 6′-position have improved activity against strains expressing the AAC6′-modifying enzymes.

Row | SMILES | MIC AECO001 (E. coli ATCC 25922) | MIC (P. aeruginosa ATCC 27853; ATCC27853, 20 h) | MIC (E. coli ATCC 25922; ATCC25922, 20 h) | further results
1 | CN[C@@H]1[C@@H](O)[C@@H](O[C@@H]2[C@@H](O)[C@H](O[C@H]3OC(CNCC4CC4)=CC[C@H]3N)[C@@H](N)C[C@H]2NC(=O)[C@@H](O)CCN)OC[C@]1(C)O [Example 18, 6′-(Methyl-cyclopropyl)-1-(4-amino-2(S)-hydroxy-butyryl)-sisomicin] | 1 mg/L (≈ 1.66 µM) |  |  | MIC (P. aeruginosa ATCC 27853; APAE001 is ATCC27853, 35° C., 20 hours): 1 to 16 mg/L (≈ 1.66 to 26.5 µM); MIC (E. coli ATCC 25922; AECO001 is ATCC25922, 35° C., 20 hours): < 1 mg/L
2 | CN[C@@H]1[C@@H](O)[C@@H](O[C@@H]2[C@@H](O)[C@H](O[C@H]3OC(CNCC(O)CO)=CC[C@H]3N)[C@@H](N)C[C@H]2NC(=O)[C@@H](O)CCN)OC[C@]1(C)O (stereo partly drawn) [Example 19, 6′-(2-Hydroxy-propanol)-1-(4-amino-2(S)-hydroxy-butyryl)-sisomicin] |  | 1 to 16 mg/L (≈ 1.61 to 25.7 µM) | < 1 mg/L | 
3 | CN[C@@H]1[C@@H](O)[C@@H](O[C@@H]2[C@@H](O)[C@H](O[C@H]3OC(CNC(=O)C(O)CN)=CC[C@H]3N)[C@@H](N)C[C@H]2NC(=O)[C@@H](O)CN)OC[C@]1(C)O (stereo partly drawn) [Example 20, 6′-(3-Amino-2-hydroxy-propionyl)-1-(3-amino-2(S)-hydroxy-propionyl)-sisomicin] |  | > 16 mg/L | > 16 mg/L | 
4 | CN[C@@H]1[C@@H](O)[C@@H](O[C@@H]2[C@@H](O)[C@H](O[C@H]3OC(CNCC(O)C(N)=O)=CC[C@H]3N)[C@@H](N)C[C@H]2NC(=O)[C@@H](O)CN)OC[C@]1(C)O (stereo partly drawn) [Example 21, 6′-(2-Hydroxy-3-propionamide)-1-(3-amino-2(S)-hydroxy-propionyl)-sisomicin] |  | 1 to 16 mg/L (≈ 1.61 to 25.7 µM) | 1 to 16 mg/L (≈ 1.61 to 25.7 µM) | 
5 | CN[C@@H]1[C@@H](O)[C@@H](O[C@@H]2[C@@H](O)[C@H](O[C@H]3OC(CNCC(O)CO)=CC[C@H]3N)[C@@H](N)C[C@H]2NC(=O)CO)OC[C@]1(C)O (stereo partly shown) [Example 23, 6′-(2-Hydroxy-propanol)-1-(2-hydroxy-acetyl)-sisomicin] |  | > 16 mg/L | > 16 mg/L | 
6 | CN[C@@H]1[C@@H](O)[C@@H](O[C@@H]2[C@@H](O)[C@H](O[C@H]3OC(CNCCCN)=CC[C@H]3N)[C@@H](N)C[C@H]2NC(=O)CO)OC[C@]1(C)O [Example 24, 6′-(3-Amino-propyl)-1-(2-hydroxy-acetyl)-sisomicin] |  | 1 to 16 mg/L (≈ 1.78 to 28.4 µM) | 1 to 16 mg/L (≈ 1.78 to 28.4 µM) | 
7 | CN[C@@H]1[C@@H](O)[C@@H](O[C@@H]2[C@@H](O)[C@H](O[C@H]3OC(CNCCO)=CC[C@H]3N)[C@@H](N)C[C@H]2NC(=O)CO)OC[C@]1(C)O [Example 25, 6′-(2-Hydroxy-ethyl)-1-(2-hydroxy-acetyl)-sisomicin] |  | 1 to 16 mg/L (≈ 1.82 to 29.1 µM) | 1 to 16 mg/L (≈ 1.82 to 29.1 µM) | 
8 | CNCC1=CC[C@@H](N)[C@@H](O[C@H]2C(O)[C@@H](O[C@H]3OC[C@](C)(O)[C@H](NC)[C@H]3O)[C@H](N)C[C@@H]2N)O1 (stereo partly shown) [Mono-substituted Compound 1, reference compound] | 1 mg/L (≈ 2.17 µM) |  |  | 
9 | CN[C@@H]1[C@@H](O)[C@@H](O[C@@H]2C(O)[C@H](O[C@H]3OC(CNCC4CC4)=CC[C@H]3N)[C@@H](N)C[C@H]2N)OC[C@]1(C)O (stereo partly shown) [Mono-substituted Compound 2, reference compound] | 1 mg/L (≈ 1.99 µM) |  |  | 
10 | CN[C@@H]1[C@@H](O)[C@@H](O[C@@H]2C(O)[C@H](O[C@H]3OC(CNCC4CCNCC4)=CC[C@H]3N)[C@@H](N)C[C@H]2N)OC[C@]1(C)O (stereo partly shown) [Mono-substituted Compound 3, reference compound] | 0.5 mg/L (≈ 0.918 µM) |  |  | 
11 | CN[C@@H]1[C@@H](O)[C@@H](O[C@@H]2C(O)[C@H](O[C@H]3OC(CNCCCN)=CC[C@H]3N)[C@@H](N)C[C@H]2N)OC[C@]1(C)O (stereo partly shown) [Mono-substituted Compound 4, reference compound] | 2 mg/L (≈ 3.96 µM) |  |  | 
12 | CN[C@@H]1C(O)[C@@H](O[C@@H]2[C@@H](O)[C@H](OC3OC(CN)=CC[C@H]3N)[C@@H](N)C[C@H]2NC(=O)[C@@H](O)CN)OC[C@]1(C)O (stereo partly shown) [Mono-substituted Compound 5, reference compound] | 0.5 mg/L (≈ 0.935 µM) |  |  | 
13 | CN[C@@H]1C(O)[C@@H](O[C@@H]2[C@@H](O)[C@H](OC3OC(CN)=CC[C@H]3N)[C@@H](N)C[C@H]2NC(=O)[C@@H](O)CCN)OC[C@]1(C)O (stereo partly shown) [Mono-substituted Compound 6, reference compound] | 0.5 mg/L (≈ 0.911 µM) |  |  | 
14 | CN[C@@H]1C(O)[C@@H](O[C@@H]2[C@@H](O)[C@H](OC3OC(CN)=CC[C@H]3N)[C@@H](N)C[C@H]2NC(=O)C2(O)CNC2)OC[C@]1(C)O (stereo partly shown) [Mono-substituted Compound 7, reference compound] | 1 mg/L (≈ 1.83 µM) |  |  | 
